Experimental data from EPA's ToxValDB 9.5 (doi:10.2903/j.efsa.2017.4722).
In brackets after ≈: the same amount, converted by molar mass.

Columns and labels:
Canidae = details: oral, Dog Other
Oncorhynchus mykiss = details: acute; duration: 96 hours; mortality
Typhlodromus pyri = assay: LR50; higher = less toxic; details: acute; mortality
Neomysis kadiakensis = details: acute; duration: 96 hours; oral; feed; mortality
Landoltia sp. = details: chronic/long-term; duration: 14 days; frond number
Anas platyrhynchos = details: acute; oral; unspecified; mortality
Apis mellifera = details: acute; oral; unspecified; mortality
Lepomis macrochirus = details: acute; duration: 96 hours; oral; feed; mortality
Colinus virginianus = details: for LD50: acute, oral, mortality
Pimephales promelas = details: chronic/long-term; duration: 35 days; other
Daphnia magna = details: chronic/long-term; duration: 21 days; reproduction

How did the NOAEL (Canidae; chronic, duration: 16 weeks, hematological) turn out when `OC1COC1` [Oxetan-3-ol] was run?
The NOAEL was 50 mg/kg-day.

And the LC50 (Oncorhynchus mykiss)?
The LC50 was greater than 100 µg/mL.

With `Cc1cc(C)nc(NC(=O)NS(=O)(=O)c2ccccc2C(=O)OC2COC2)n1` [Oxasulfuron] as the compound, how does the LR50 (Typhlodromus pyri) read?
Its LR50 is 3.23 g/ha.

And the LC50 (Neomysis kadiakensis)?
The LC50 was 82.6 µg/mL (≈ 203 µM).

What about the NOEC (Landoltia sp.) of the same compound?
The NOEC was 0.0002 mg/L.

And the LD50 (Anas platyrhynchos)?
Its LD50 is greater than 2250 mg/kg-day.

And the LD50 (Apis mellifera)?
The LD50 was greater than 100 µg/piece.

What about the LC50 (Lepomis macrochirus) of the same compound?
Its LC50 is greater than 111 µg/mL.

And the LD50 (Rattus norvegicus; acute, oral, mortality)?
The LD50 was greater than 5000 mg/kg-day.

What about the NOAEL (Rattus norvegicus; chronic, duration: 2 years, histopathology: nonneoplastic) of the same compound?
The NOAEL was 8.3 mg/kg-day.

What about the LD50 (Colinus virginianus; diet) of the same compound?
The LD50 was greater than 1610 mg/kg-day.

And the LD50 (Colinus virginianus)?
The LD50 was greater than 2250 mg/kg-day.

And the NOEL (Colinus virginianus; reproduction developmental)?
The NOEL was 6.91 mg/kg-day.

And the NOAEL (Canidae; chronic, duration: 1 years, neurology)?
Its NOAEL is 1.3 mg/kg-day.

And the NOAEL (Canidae; subchronic, duration: 90 days, neurology)?
Its NOAEL is 1.3 mg/kg-day.

And the NOEC (Pimephales promelas)?
Its NOEC is 114 mg/L.

And the LC50 (Tagia sp.; acute, duration: 14 days, mortality)?
The LC50 was greater than 1000 mg/kg.

What about the NOEC (Tagia sp.; chronic/long-term, duration: 56 days, reproduction) of the same compound?
Its NOEC is 2 mg/kg.

What about the NOEC (Daphnia magna) of the same compound?
Its NOEC is 14 mg/L.
